Experiments:
Assay in all cases: Bliss excess, mean over the matrix (fraction); higher = more synergy
[1] = system: HCC-78 (Lung Adenocarcinoma)
Outline: (§1)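 After 24 hours at 37°C and 5% CO2 in 1536-well plates, cells in DMEM/F12 or RPMI plus 10% FBS received two-drug dose matrices for 72 hours. Viability came from CellTiter-Glo 2.0 luminescence and was scaled as inhibition, anchored at 0 by vehicle wells and at 1 by blank wells. Combination Emax is taken as the second-highest inhibition in the matrix, and Bliss excess as the observed combination effect less EA + EB − EA·EB, with EA and EB the single-agent effects.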

[2] = system: Ramos-2G6-4C10 (Burkitt's Lymphoma)
Outline: as §1

[3] = system: NCI-H82 (Small Cell Lung Carcinoma)
Outline: as §1

[4] = system: TCCSUP (Bladder Carcinoma)
Outline: as §1

[5] = system: TE-15 (Esophageal Squamous Cell Carcinoma)
Outline: as §1

AGS (Gastric Carcinoma) = system: AGS (Gastric Carcinoma)
Outline: as §1

[6] = system: SNU-5 (Gastric Carcinoma)
Outline: as §1

[7] = system: UM-UC-3 (Bladder Carcinoma)
Outline: as §1

[8] = system: TE-9 (Esophageal Squamous Cell Carcinoma)
Outline: as §1

[9] = system: HO-1-N-1 (Oral Cavity Carcinoma)
Outline: as §1

[10] = system: ME-1 (Acute Myeloid Leukemia)
Outline: as §1

42-MG-BA (Glioblastoma) = system: 42-MG-BA (Glioblastoma)
Outline: as §1

[11] = system: SK-ES-1 (Ewing's Sarcoma)
Outline: as §1

[12] = system: DEL (T-Cell Non-Hodgkin's Lymphoma)
Outline: as §1

[13] = system: LU-135 (Small Cell Lung Carcinoma)
Outline: as §1

[14] = system: DoTc2-4510 (Cervical Carcinoma)
Outline: as §1

ES4 (Ewing's Sarcoma) = system: ES4 (Ewing's Sarcoma)
Outline: as §1

[15] = system: EC-GI-10 (Esophageal Squamous Cell Carcinoma)
Outline: as §1

T98G (Glioblastoma) = system: T98G (Glioblastoma)
Outline: as §1

[16] = system: COLO-205 (Colorectal Carcinoma)
Outline: as §1

Row | Compound | Bliss excess [1] | Bliss excess [2] | Bliss excess [3] | Bliss excess [4] | Bliss excess [5] | Bliss excess (AGS (Gastric Carcinoma)) | Bliss excess [6] | Bliss excess [7] | Bliss excess [8] | Bliss excess [9] | Bliss excess [10] | Bliss excess (42-MG-BA (Glioblastoma)) | Bliss excess [11] | Bliss excess [12] | Bliss excess [13] | Bliss excess [14] | Bliss excess (ES4 (Ewing's Sarcoma)) | Bliss excess [15] | Bliss excess (T98G (Glioblastoma)) | Bliss excess [16]
1 | COc1cccc(OCCCN)c1-c1cc(Nc2cnc(C#N)cn2)n[nH]1 [Prexasertib] + Cc1cc2ncnn2cc1Nc1ncc2c(n1)n(C1CCOCC1)c(=O)n2C [AZD7648] (first compound max 1 µM, 7x7, partner max 10 µM) | -0.0841 | 0.0025 | -0.0355 | -0.0182 | -0.0105 | -0.018 | -0.0111 | -0.0198 | -0.0322 | 0.0096 | -0.0048 | -0.0574 | -0.0257 | -0.0097 | 0.025 | 0.0159 | -0.0121 | -0.0144 | -0.0566 | 0.0227
2 | NC1(C(=O)N[C@@H](CCO)c2ccc(Cl)cc2)CCN(c2ncnc3[nH]ccc23)CC1 [Capivasertib] + COc1nnc2ccc(N3CCC(c4ccc(OCCN5CCN(C)C(=O)[C@H]5C)cc4)CC3)nn12 [AZD5153] (first compound max 10 µM, 7x7, partner max 1 µM) | 0.0193 | 0.0722 | -0.139 | 0.0311 | 0.0642 | 0.0228 | 0.0149 | -0.0158 | 0.0567 | 0.0214 | -0.0161 | 0.0611 | 0.0815 | -0.0363 | -0.005 | -0.0084 | -0.0175 | 0.0434 | 0.0908 | 0.0237
3 | CN(CCO)CC[C@H](CSc1ccccc1)Nc1ccc(S(=O)(=O)NC(=O)c2ccc(N3CCC([C@@H](O)c4ccccc4-c4ccc(Cl)cc4)CC3)cc2)cc1S(=O)(=O)C(F)(F)F [AZD4320] + Cc1cc2ncnn2cc1Nc1ncc2c(n1)n(C1CCOCC1)c(=O)n2C [AZD7648] (first compound max 1 µM, 7x7, partner max 10 µM) | -0.0227 | 0.0379 | 0.012 | -0.0325 | -0.046 | -0.0298 | -0.0151 | -0.0234 | -0.016 | -0.0407 | 0.0237 | -0.0244 | 0.0809 | -0.0346 | 0.0109 | -0.0144 | 0.0147 | -0.0397 | -0.0493 | -0.0132
4 | COc1cccc2c1C(=O)c1c(O)c3c(c(O)c1C2=O)C[C@@](O)(C(=O)CO)C[C@@H]3O[C@H]1C[C@H](N)[C@H](O)[C@H](C)O1 [Doxorubicin] + Cc1cc2ncnn2cc1Nc1ncc2c(n1)n(C1CCOCC1)c(=O)n2C [AZD7648] (first compound max 1 µM, 7x7, partner max 10 µM) | 0.049 | 0.0786 | 0.0827 | 0.0282 | 0.0507 | 0.109 | 0.007 | 0.0688 | -0.0393 | 0.0808 | 0.027 | 0.0271 | 0.143 | 0.0935 | 0.0388 | 0.0248 | 0.0761 | 0.0887 | 0.0257 | -0.0041
5 | CN(CCO)CC[C@H](CSc1ccccc1)Nc1ccc(S(=O)(=O)NC(=O)c2ccc(N3CCC([C@@H](O)c4ccccc4-c4ccc(Cl)cc4)CC3)cc2)cc1S(=O)(=O)C(F)(F)F [AZD4320] + Cn1cnc2c(F)c(Nc3ccc(Br)cc3Cl)c(C(=O)NOCCO)cc21 [Selumetinib] (first compound max 1 µM, 7x7, partner max 3 µM) | 0.0491 | 0.138 | -0.0009 | 0.0157 | -0.0391 | 0.181 | 0.118 | -0.0058 | 0.0456 | -0.0533 | 0.0484 | 0.0167 | -0.0095 | 0.103 | 0.0266 | -0.021 | 0.0074 | 0.0802 | 0.0206 | 0.026
6 | CC1(C)CCC(CN2CCN(c3ccc(C(=O)NS(=O)(=O)c4ccc(NCC5CCOCC5)c([N+](=O)[O-])c4)c(Oc4cnc5[nH]ccc5c4)c3)CC2)=C(c2ccc(Cl)cc2)C1 [Venetoclax] + C=CCn1c(=O)c2cnc(Nc3ccc(N4CCN(C)CC4)cc3)nc2n1-c1cccc(C(C)(C)O)n1 [AZD1775] (first compound max 1 µM, partner max 1 µM) | 0.0098 | 0.127 | 0.0342 | -0.055 | -0.0737 | -0.0506 | -0.0649 | -0.0225 | 0.0674 | 0.0912 | 0.0289 | -0.0687 | 0.0455 | -0.027 | -0.0538 | 0.0075 | -0.0268 | 0.0086 | 0.0648 | -0.0661
7 | COc1cccc(OCCCN)c1-c1cc(Nc2cnc(C#N)cn2)n[nH]1 [Prexasertib] + CN(C)CCCOc1ccc(-c2ccc3ncc4c(c3c2)n(C2CCOCC2)c(=O)n4C)cn1 [AZD0156] (first compound max 1 µM, 7x7, partner max 1 µM) | -0.0463 | 0.0693 | 0.0117 | -0.0021 | -0.0346 | -0.0052 | -0.0703 | -0.0174 | -0.0307 | -0.0077 | -0.0167 | 0.023 | 0.0075 | -0.0201 | 0.0508 | -0.0208 | 0.0147 | -0.0056 | 0.0132 | 0.061
8 | CC1(C)CCC(CN2CCN(c3ccc(C(=O)NS(=O)(=O)c4ccc(NCC5CCOCC5)c([N+](=O)[O-])c4)c(Oc4cnc5[nH]ccc5c4)c3)CC2)=C(c2ccc(Cl)cc2)C1 [Venetoclax] + CN(C)CCCOc1ccc(-c2ccc3ncc4c(c3c2)n(C2CCOCC2)c(=O)n4C)cn1 [AZD0156] (first compound max 1 µM, 7x7, partner max 1 µM) | 0.0213 | 0.0676 | 0.0295 | -0.036 | -0.0298 | -0.0191 | 0.0053 | 0.0045 | -0.0213 | 0.0445 | -0.0045 | 0.0057 | 0.0502 | 0.0011 | -0.0012 | -0.0148 | -0.0226 | 0.0119 | -0.0509 | -0.0153
9 | CCc1c2c(nc3ccc(O)cc13)-c1cc3c(c(=O)n1C2)COC(=O)[C@]3(O)CC [SN-38] + O=C(c1cc(Cc2n[nH]c(=O)c3ccccc23)ccc1F)N1CCN(C(=O)C2CC2)CC1 [Olaparib] (first compound max 0.3 µM, 7x7, partner max 10 µM) | 0.0106 | 0.0338 | -0.0065 | 0.0883 | 0.0207 | 0.0897 | – | 0.0493 | 0.0419 | 0.06 | 0.0041 | 0.0749 | 0.0611 | 0.0923 | 0.0545 | 0.0174 | -0.0648 | – | 0.107 | 0.0491
10 | CC(=O)c1c(C)c2cnc(Nc3ccc(N4CCNCC4)cn3)nc2n(C2CCCC2)c1=O [Palbociclib] + CN(CC[C@H](CSC1=CC=CC=C1)NC2=C(C=C(C=C2)S(=O)(=O)NC(=O)C3=CC=C(C=C3)N4CCC(CC4)[C@H](C5=CC=CC=C5C6=CC=C(C=C6)Cl)O)S(=O)(=O)C(F)(F)F)CCO [AZD4320] (first compound max 10 µM, 7x7, partner max 1 µM) | – | – | – | -0.0607 | – | -0.008 | -0.0446 | – | – | – | – | -0.061 | 0.0334 | -0.0135 | 0.0316 | – | -0.113 | -0.0715 | – | -0.0497
11 | COc1nnc2ccc(N3CCC(c4ccc(OCCN5CCN(C)C(=O)[C@H]5C)cc4)CC3)nn12 [AZD5153] + CN(CC[C@H](CSC1=CC=CC=C1)NC2=C(C=C(C=C2)S(=O)(=O)NC(=O)C3=CC=C(C=C3)N4CCC(CC4)[C@H](C5=CC=CC=C5C6=CC=C(C=C6)Cl)O)S(=O)(=O)C(F)(F)F)CCO [AZD4320] (first compound max 1 µM, 7x7, partner max 1 µM) | – | – | – | 0.0033 | – | -0.03 | 0.0566 | – | – | – | – | 0.101 | 0.0211 | 0.0204 | 0.0221 | – | -0.0136 | -0.0052 | – | 0.0335
12 | C[C@@H](c1ccc2nccn2c1)n1nnc2ncc(-c3cnn(C)c3)nc21 [Savolitinib] + CN(CC[C@H](CSC1=CC=CC=C1)NC2=C(C=C(C=C2)S(=O)(=O)NC(=O)C3=CC=C(C=C3)N4CCC(CC4)[C@H](C5=CC=CC=C5C6=CC=C(C=C6)Cl)O)S(=O)(=O)C(F)(F)F)CCO [AZD4320] (first compound max 1 µM, 7x7, partner max 1 µM) | – | – | – | -0.0469 | – | -0.0353 | 0.029 | – | – | – | – | -0.0553 | -0.0692 | -0.0318 | 0.0057 | – | -0.0622 | 0.0005 | – | -0.043
13 | Cc1c2c(nn1C)CSCc1cc(n(C)n1)CSc1cc(c3ccccc3c1)OCCCc1c(C(=O)O)n(C)c3c-2c(Cl)ccc13 [AZD5991] + Cc1cc2ncnn2cc1Nc1ncc2c(n1)n(C1CCOCC1)c(=O)n2C [AZD7648] (first compound max 1 µM, 7x7, partner max 10 µM) | -0.016 | 0.0227 | 0.0174 | -0.0203 | -0.0325 | -0.037 | 0.0269 | 0.0053 | 0.0162 | -0.0039 | 0.013 | -0.0299 | 0.0001 | 0.0005 | -0.0237 | – | -0.0593 | -0.0555 | -0.0663 | -0.0604
14 | C=CCn1c(=O)c2cnc(Nc3ccc(N4CCN(C)CC4)cc3)nc2n1-c1cccc(C(C)(C)O)n1 [AZD1775] + C[C@@H]1COCCN1C2=NC(=NC(=C2)C3(CC3)[S@](=N)(=O)C)C4=C5C=CNC5=NC=C4 [AZD6738] (first compound max 1 µM, partner max 10 µM) | 0.0101 | 0.0915 | – | 0.0305 | -0.0076 | 0.113 | – | 0.0606 | 0.0638 | 0.0456 | -0.0241 | 0.0384 | 0.0071 | 0.0252 | -0.0044 | 0.0479 | 0.0417 | 0.0535 | -0.0178 | 0.141
